Legend:
Del19/T790M/C797S EGFR = test: EGFR degradation HTRF assay in H1975-clone #28 (DTC) cells; type: cell-based; conditions: H1975 # 28 DTC (Del19/T790M/C797S), 16h treatment; for DC50: HTRF; for Dmax (%): maximum percentage of degradation
Summary of the method: (§1)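 H1975 clones with endogenous EGFR knocked out and lentivirally expressed mutant EGFR treated 16 h at 37 °C with compounds, 8 doses from 10 uM, 5-fold dilutions, 0.2% DMSO. Lysates read by HTRF (665/620 nm) overnight; DC50 from four-parameter fit.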

L858R/T790M/C797S EGFR = molecular target: T1, L858R/T790M/C797S EGFR (Homo sapiens, UniProt P00533, C797S/L858R/T790M); test: EGFR degradation HTRF assay in H1975-clone #25 (LTC) cells; type: cell-based; conditions: 16h treatment; for DC50: H1975 # 25-LTC (L858R/T790M/C797S), HTRF; for Dmax: NCI-H1975, H1975 # 25-LTC (L858R/T790M/C797S), maximum percentage of degradation
T1 construct: expressed in transfected cells; host or cells: H1975 clone #25 (lentiviral over-expression, endogenous EGFR knocked out by sgRNA)
T1 sequence (P00533 25-1210 T790M/C797S/L858R): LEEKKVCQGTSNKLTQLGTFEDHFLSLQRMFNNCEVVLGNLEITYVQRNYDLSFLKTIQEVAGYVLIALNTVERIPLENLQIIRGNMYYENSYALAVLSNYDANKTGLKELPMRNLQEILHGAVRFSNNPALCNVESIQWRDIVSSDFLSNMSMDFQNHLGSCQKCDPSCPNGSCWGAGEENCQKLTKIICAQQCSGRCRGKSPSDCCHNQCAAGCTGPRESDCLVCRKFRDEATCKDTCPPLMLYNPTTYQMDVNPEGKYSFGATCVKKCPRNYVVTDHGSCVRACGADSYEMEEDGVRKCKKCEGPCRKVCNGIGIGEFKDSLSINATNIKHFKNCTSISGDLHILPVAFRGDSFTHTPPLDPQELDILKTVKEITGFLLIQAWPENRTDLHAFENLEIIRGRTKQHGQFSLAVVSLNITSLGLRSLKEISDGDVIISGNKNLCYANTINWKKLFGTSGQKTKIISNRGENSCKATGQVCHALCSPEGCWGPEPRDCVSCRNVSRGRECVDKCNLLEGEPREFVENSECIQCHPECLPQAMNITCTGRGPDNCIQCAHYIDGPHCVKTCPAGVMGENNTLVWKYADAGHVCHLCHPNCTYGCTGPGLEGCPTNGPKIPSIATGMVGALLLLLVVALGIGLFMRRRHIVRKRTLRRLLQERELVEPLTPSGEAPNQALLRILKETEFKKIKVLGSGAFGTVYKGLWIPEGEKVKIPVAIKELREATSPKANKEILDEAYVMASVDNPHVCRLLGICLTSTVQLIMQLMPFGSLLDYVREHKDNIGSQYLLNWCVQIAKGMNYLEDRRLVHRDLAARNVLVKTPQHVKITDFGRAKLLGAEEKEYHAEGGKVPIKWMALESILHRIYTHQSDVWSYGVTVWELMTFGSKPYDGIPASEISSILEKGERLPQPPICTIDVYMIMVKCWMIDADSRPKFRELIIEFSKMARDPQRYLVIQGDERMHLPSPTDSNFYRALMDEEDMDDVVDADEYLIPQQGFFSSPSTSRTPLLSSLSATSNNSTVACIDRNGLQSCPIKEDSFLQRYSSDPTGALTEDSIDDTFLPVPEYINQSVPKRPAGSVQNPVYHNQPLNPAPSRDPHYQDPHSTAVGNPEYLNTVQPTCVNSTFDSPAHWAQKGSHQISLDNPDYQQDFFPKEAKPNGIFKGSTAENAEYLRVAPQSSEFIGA
Summary of the method: as §1

Row | SMILES | DC50 (Del19/T790M/C797S EGFR) | Dmax (%) (Del19/T790M/C797S EGFR) | DC50 (L858R/T790M/C797S EGFR) | Dmax (L858R/T790M/C797S EGFR)
1 | Cc1cc2cc(n1)-c1cnn(C)c1OCCC[C@@H](C)CN1/C(=N/C2=O)Nc2ccc(N3CC[C@H](C(=O)N4CCN(c5cc(F)c([C@H]6CCC(=O)NC6=O)c(F)c5)CC4)C3)cc21 [Example 358, (R)-3-(2,6-difluoro-4-(4-((S)-1-((R,E)-1^1,2^4,7-trimethyl-3-oxo-5^2,5^3-dihydro-1^1H,5^1H-11-oxa-4-aza-5(2,1)-benzo[d]imidazola-2(2,4)-pyridina-1(4,5)-pyrazolacycloundecaphane-5^6-yl)pyrrolidine-3-carbonyl)piperazin-1-yl)phenyl)piperidine-2,6-dione] | 1.3 nM | 75.67% | 0.622 nM | 89.6%
2 | Cc1cc2cc(n1)-c1cnn(C)c1OCCC[C@@H](C)CN1/C(=N/C2=O)Nc2ccc(CN3CC4CC(C3)N4C(=O)[C@@H]3CCN(c4cc(F)c([C@H]5CCC(=O)NC5=O)c(F)c4)C3)cc21 [Example 163, (3R)-3-(2,6-difluoro-4-((3R)-3-(3-(((R,E)-1^1,2^6,7-trimethyl-3-oxo-5^2,5^3-dihydro-1^1H,5^1H-11-oxa-4-aza-5(2,1)-benzo[d]imidazola-2(2,4)-pyridina-1(4,5)-pyrazolacycloundecaphane-5^6-yl)methyl)-3,6-diazabicyclo[3.1.1]heptane-6-carbonyl)pyrrolidin-1-yl)phenyl)piperidine-2,6-dione] | 1.76 nM | 66.41% | 1.14 nM | 83.1%
3 | Cc1cc2cc(n1)-c1cnn(C)c1OCCC[C@@H](C)CN1/C(=N/C2=O)Nc2ccc(C(=O)N(C)[C@@H]3CCN(CCc4cc(F)c([C@H]5CCC(=O)NC5=O)c(F)c4)CC3(C)C)cc21 [Example 262, (R,E)-N—((R)-1-(4-((R)-2,6-dioxopiperidin-3-yl)-3,5-difluorophenethyl)-3,3-dimethylpiperidin-4-yl)-N,1^1,2^6,7-tetramethyl-3-oxo-5^2,5^3-dihydro-1^1H,5^1H-11-oxa-4-aza-5(2,1)-benzo[d]imidazola-2(2,4)-pyridina-1(4,5)-pyrazolacycloundecaphane-5^6-carboxamide] | 0.474 nM | 76.44% | 0.543 nM | 84.2%
4 | Cc1cc2cc(n1)-c1cnn(C)c1OCCC[C@@H](C)CN1/C(=N/C2=O)Nc2ccc(CN3CCN(CC4CN(c5cc(F)c([C@H]6CCC(=O)NC6=O)c(F)c5)C4)CC3)cc21 [Example 150, (R)-3-(2,6-difluoro-4-(3-((4-(((R,E)-1^1,2^6,7-trimethyl-3-oxo-5^2,5^1-dihydro-1^1H,5^1H-11-oxa-4-aza-5(2,1)-benzo[d]imidazola-2(2,4)-pyridina-(4,5)-pyrazolacycloundecaphane-5^6-yl)methyl)piperazin-1-yl)methyl)azetidin-1-yl)phenyl)piperidine-2,6-dione] | 2.17 nM | 79.66% | 0.705 nM | 87.9%
5 | Cc1cc2cc(n1)-c1cnn(C)c1OCCC[C@@H](C)CN1/C(=N/C2=O)Nc2ccc(C(=O)N(C)C3C[C@H]4CN(CCc5cc(F)c([C@H]6CCC(=O)NC6=O)c(F)c5)C[C@@H]4C3)cc21 [Example 293, (R,E)-N—((3aR,6aR)-2-(4-((R)-2,6-dioxopiperidin-3-yl)-3,5-difluorophenethyl)octahydrocyclopenta[c]pyrrol-5-yl)-N,1^1,2^6,7-tetramethyl-3-oxo-5^2,5^1-dihydro-1^1H,5^1H-11-oxa-4-aza-5(2,1)-benzo[d]imidazola-2(2,4)-pyridina-1(4,5)-pyrazolacycloundecaphane-5^6-carboxamide] | 0.997 nM | 75.49% | 1.56 nM | 86.3%

— patent publication US20240342292A1, “Compounds for the Degradation of EGFR Kinase” (BeiGene Switzerland GmbH, priority 2021, published 2024)
